Laboratory results from patent US20260041679A1, “METHOD OF TREATING HYPERTENSION WITH THE ALDOSTERONE SYNTHASE INHIBITOR BAXDROSTAT” (CINCOR PHARMA, INC., priority 2022, published 2026).

Tested on: patients with uHTN
Assay: Study 124 Part 1: seated SBP in patients with uncontrolled hypertension (Example 9)
Assay type: in vivo, human
Design: key to Model-Based Least-Squares Mean Change from Baseline (SBP) / LSMEANS change from baseline (SBP) / Model-Based Least-Square Mean Change from Baseline (SBP): LS mean change from baseline in seated SBP, mmHg
Description: Study 124 is a double-blind, placebo-controlled, dose range finding, multicenter study conducted in patients with uHTN receiving background antihypertensive agent(s) that are either an ACEI or an ARB, an ACEI/ARB plus a thiazide diuretic, or an ACEI/ARB plus a calcium channel blocker. The study consists of two parts: Part 1 consists of an 8-week treatment period in which the patients are to be assigned to one of 4 dose groups in equal ratio testing 0.5 mg, 1 mg, and 2 mg baxdrostat effects compared to a placebo. Patients are to administer double-blind baxdrostat tablets once per day while they continue taking the background antihypertensive medications. After 8 weeks of double-blind treatment, patients were to enter part 2 of the study unless the patient was assigned to the 2 mg group and the SBP remains ≥130 mmHg. In part 2 of the study, all patients are to cease dosing with background antihypertensive medication and take only baxdrostat 2 mg dose as a monotherapy for 4 weeks.
Key inclusion criteria include that patients are on a stable regimen of anti-hypertensive agents for at least 8 weeks; and have a seated BP≥140 mmHg. Key exclusion criteria include a seated SBP≥180 mmHg and estimated glomerular filtration rate (eGFR)<30 mL/min/1.73 m^2.
In this table, CI=confidence interval, DBP=diastolic blood pressure, LS=least squares, SBP=systolic blood pressure, SE=standard error. The LS means, CIs, and p-values are from an MMRM model with change from baseline as the dependent variable with randomized treatment, visit, and treatment-by-visit interaction as fixed categorical effects; along with covariates of the baseline value, race (African American versus non-African American), and the type of background antihypertensive regimen. The restricted maximum likelihood estimation (REML) approach will be used with an unstructured covariance matrix and the Kenward-Roger approximation for degrees of freedom.

[1] = 0.5 mg (N = 11), mITT Population for Compliance for Black Patients
[2] = 0.5 mg (N = 11), mITT, Female Non-Hispanic Female Patients
[3] = 0.5 mg (N = 12), mITT, Non-Hispanic Male Patients
[4] = 0.5 mg (N = 15), mITT, Hispanic Male Patients
[5] = 1 mg (N = 11), mITT, Female Non-Hispanic Female Patients
[6] = 1 mg (N = 13), mITT Population for Compliance for Black Patients
[7] = 1 mg (N = 14), mITT, Female Hispanic/Latino Patients
[8] = 1 mg (N = 14), mITT, Hispanic Male Patients
[9] = 1 mg (N = 22), mITT, Non-Hispanic Male Patients

CCC(=O)N[C@@H]1CCCc2c(-c3ccc4c(c3)CCC(=O)N4C)cncc21 [baxdrostat, (R)—N-(4-(1-methyl-2-oxo-1,2,3,4-tetrahydroquinolin-6-yl)-5,6,7,8-tetrahydroisoquinolin-8-yl) propionamide]
SBP Change from Baseline to Week 8, Mean (0.5 mg): −17.0 mmHg | SBP Change from Baseline to Week 8, Median (0.5 mg): −17.0 mmHg | SBP at Week 8, Median (0.5 mg): 127.0 mmHg | Model-Based Least-Square Mean Change from Baseline (SBP) (0.5 mg (N = 11), Week 2, mITT Population for Compliance for Black Patients): −9.0 | Model-Based Least-Squares Mean Change from Baseline (SBP) (0.5 mg (N = 11), Week 2, mITT, Female Non-Hispanic Female Patients): −12.5 | Model-Based Least-Square Mean Change from Baseline (SBP) (0.5 mg (N = 11), Week 4, mITT Population for Compliance for Black Patients): −11.6 | Model-Based Least-Squares Mean Change from Baseline (SBP) (0.5 mg (N = 11), Week 4, mITT, Female Non-Hispanic Female Patients): −12.2 | Model-Based Least-Square Mean Change from Baseline (SBP) (0.5 mg (N = 11), Week 6, mITT Population for Compliance for Black Patients): −13.0 | Model-Based Least-Squares Mean Change from Baseline (SBP) (0.5 mg (N = 11), Week 6, mITT, Female Non-Hispanic Female Patients): −11.8 | Model-Based Least-Square Mean Change from Baseline (SBP) (0.5 mg (N = 11), Week 8, mITT Population for Compliance for Black Patients): −17.2 | Model-Based Least-Squares Mean Change from Baseline (SBP) (0.5 mg (N = 11), Week 8, mITT, Female Non-Hispanic Female Patients): −16.7 | Comp w/ Placebo at Week 6, Diff (95% CI) [1]: −2.6 (−14.94, 9.64) | Comp w/ Placebo at Week 8, Diff (95% CI) [1]: −3.0 (−13.58, 7.49) | Comp w/ Placebo at Week 6, Diff (95% CI) [2]: −1.5 (−13.92, 10.84) | Comp w/ Placebo at Week 8, Diff (95% CI) [2]: −3.7 (−13.14, 5.67) | Model-Based Least-Squares Mean Change from Baseline (SBP) (0.5 mg (N = 12), Week 2, mITT, Non-Hispanic Male Patients): −19.9 | Model-Based Least-Squares Mean Change from Baseline (SBP) (0.5 mg (N = 12), Week 4, mITT, Non-Hispanic Male Patients): −20.5 | Model-Based Least-Squares Mean Change from Baseline (SBP) (0.5 mg (N = 12), Week 6, mITT, Non-Hispanic Male Patients): −16.3 | Model-Based Least-Squares Mean Change from Baseline (SBP) (0.5 mg (N = 12), Week 8, mITT, Non-Hispanic Male Patients): −17.2 | Comp w/ Placebo at Week 6, Diff (95% CI) [3]: −6.4 (−17.23, 4.48) | Comp w/ Placebo at Week 8, Diff (95% CI) [3]: −2.2 (−12.46, 8.04) | Model-Based Least-Squares Mean Change from Baseline (SBP) (0.5 mg (N = 15), Week 2, mITT, Hispanic Male Patients): −8.3 | Model-Based Least-Squares Mean Change from Baseline (SBP) (0.5 mg (N = 15), Week 4, mITT, Hispanic Male Patients): −12.6 | Model-Based Least-Squares Mean Change from Baseline (SBP) (0.5 mg (N = 15), Week 6, mITT, Hispanic Male Patients): −16.0 | Model-Based Least-Squares Mean Change from Baseline (SBP) (0.5 mg (N = 15), Week 8, mITT, Hispanic Male Patients): −18.6 | Comp w/ Placebo at Week 6, Diff (95% CI) [4]: −4.7 (−12.73, 3.30) | Comp w/ Placebo at Week 8, Diff (95% CI) [4]: 0.1 (−6.20, 6.41) | SBP at Week 8, Mean (0.5 mg QD, mITT): 129.1 mmHg | SBP LS mean change from baseline (SE), MMRM (0.5 mg, Week 8): −17 (1.63) mm Hg | SBP LS mean difference (SE) vs placebo (0.5 mg, Week 8): −0.5 (2.21) mmHg | LS Mean Change from Baseline (SE) in SBP (0.5 mg, Wk 2): −10.3 (1.61) mm Hg | LS Mean Change from Baseline (SE) in SBP (0.5 mg, Wk 4): −14.2 (1.61) mm Hg | LS Mean Change from Baseline (SE) in SBP (0.5 mg, Wk 6): −13.5 (1.88) mm Hg | SBP Change from Baseline to Week 8, Mean (1 mg): −16.6 mmHg | SBP Change from Baseline to Week 8, Median (1 mg): −16.0 mmHg | SBP at Week 8, Median (1 mg): 128.0 mmHg | Model-Based Least-Squares Mean Change from Baseline (SBP) (1 mg (N = 11), Week 2, mITT, Female Non-Hispanic Female Patients): −11.8 | Model-Based Least-Squares Mean Change from Baseline (SBP) (1 mg (N = 11), Week 4, mITT, Female Non-Hispanic Female Patients): −13.5 | Model-Based Least-Squares Mean Change from Baseline (SBP) (1 mg (N = 11), Week 6, mITT, Female Non-Hispanic Female Patients): −20.3 | Model-Based Least-Squares Mean Change from Baseline (SBP) (1 mg (N = 11), Week 8, mITT, Female Non-Hispanic Female Patients): −23.8 | Comp w/ Placebo at Week 6, Diff (95% CI) [5]: −10.0 (−22.06, 2.15) | Comp w/ Placebo at Week 8, Diff (95% CI) [5]: −10.8 (−20.05, −1.63) | Model-Based Least-Square Mean Change from Baseline (SBP) (1 mg (N = 13), Week 2, mITT Population for Compliance for Black Patients): −8.9 | Model-Based Least-Square Mean Change from Baseline (SBP) (1 mg (N = 13), Week 4, mITT Population for Compliance for Black Patients): −11.8 | Model-Based Least-Square Mean Change from Baseline (SBP) (1 mg (N = 13), Week 6, mITT Population for Compliance for Black Patients): −13.5 | Model-Based Least-Square Mean Change from Baseline (SBP) (1 mg (N = 13), Week 8, mITT Population for Compliance for Black Patients): −17.4 | Comp w/ Placebo at Week 6, Diff (95% CI) [6]: −3.1 (−14.59, 8.31) | Comp w/ Placebo at Week 8, Diff (95% CI) [6]: −3.2 (−12.88, 6.52) | Model-Based Least-Squares Mean Change from Baseline (SBP) (1 mg (N = 14), Week 2, mITT, Female Hispanic/Latino Patients): −7.8 | Model-Based Least-Squares Mean Change from Baseline (SBP) (1 mg (N = 14), Week 2, mITT, Hispanic Male Patients): −7.0 | Model-Based Least-Squares Mean Change from Baseline (SBP) (1 mg (N = 14), Week 4, mITT, Female Hispanic/Latino Patients): −10.3 | Model-Based Least-Squares Mean Change from Baseline (SBP) (1 mg (N = 14), Week 4, mITT, Hispanic Male Patients): −6.4 | Model-Based Least-Squares Mean Change from Baseline (SBP) (1 mg (N = 14), Week 6, mITT, Female Hispanic/Latino Patients): −12.6 | Model-Based Least-Squares Mean Change from Baseline (SBP) (1 mg (N = 14), Week 6, mITT, Hispanic Male Patients): −9.2 | Model-Based Least-Squares Mean Change from Baseline (SBP) (1 mg (N = 14), Week 8, mITT, Female Hispanic/Latino Patients): −12.7 | Model-Based Least-Squares Mean Change from Baseline (SBP) (1 mg (N = 14), Week 8, mITT, Hispanic Male Patients): −15.8 | Comp w/ Placebo at Week 6, Diff (95% CI) [7]: −6.2 (−19.55, 7.07) | Comp w/ Placebo at Week 8, Diff (95% CI) [7]: 6.4 (−5.38, 18.10) | Comp w/ Placebo at Week 6, Diff (95% CI) [8]: 2.1 (−6.16, 10.29) | Comp w/ Placebo at Week 8, Diff (95% CI) [8]: 2.9 (−3.41, 9.25) | Model-Based Least-Squares Mean Change from Baseline (SBP) (1 mg (N = 22), Week 2, mITT, Non-Hispanic Male Patients): −6.8 | Model-Based Least-Squares Mean Change from Baseline (SBP) (1 mg (N = 22), Week 4, mITT, Non-Hispanic Male Patients): −10.3 | Model-Based Least-Squares Mean Change from Baseline (SBP) (1 mg (N = 22), Week 6, mITT, Non-Hispanic Male Patients): −14.2 | Model-Based Least-Squares Mean Change from Baseline (SBP) (1 mg (N = 22), Week 8, mITT, Non-Hispanic Male Patients): −14.7 | Comp w/ Placebo at Week 6, Diff (95% CI) [9]: −4.3 (−13.56, 5.00) | Comp w/ Placebo at Week 8, Diff (95% CI) [9]: 0.2 (−8.82, 9.26) | SBP at Week 8, Mean (1 mg QD, mITT): 130.8 mmHg | SBP LS mean change from baseline (SE), MMRM (1 mg, Week 8): −16 (1.62) mm Hg | SBP LS mean difference (SE) vs placebo (1 mg, Week 8): 0.6 (2.20) mmHg | LS Mean Change from Baseline (SE) in SBP (1 mg, Wk 2): −7.7 (1.6) mm Hg | LS Mean Change from Baseline (SE) in SBP (1 mg, Wk 4): −9.7 (1.59) mm Hg
